Results from ChEMBL document CHEMBL5126531, “NAE modulators: A potential therapy for gastric carcinoma” (Eur J Med Chem, 2022).

Assays:
[1] = tested on: MGC-803; test: Induction of apoptosis in human MGC-803 cells assessed as total apoptotic cells at 1 micromol/L incubated for 48 hrs by Annexin V-FITC/PI staining based flow cytometric analysis (reference value: 3.2%); assay type: functional; settings: dose 1 µmol/L, at 1 µM
[2] = tested on: MGC-803; test: Antiproliferative activity against human MGC-803 cells assessed as inhibition of cell growth incubated for 48 hrs by MTT assay; assay type: functional, cell-based; settings: MGC-803, 48 h
[3] = tested on: MGC-803; test: Induction of apoptosis in human MGC-803 cells assessed as total apoptotic cells at 0.5 micromol/L incubated for 48 hrs by Annexin V-FITC/PI staining based flow cytometric analysis (reference value: 3.2%); assay type: functional; settings: dose 0.5 µmol/L, at 0.5 µM
[4] = tested on: MGC-803; test: Induction of apoptosis in human MGC-803 cells assessed as total apoptotic cells at 2 micromol/L incubated for 48 hrs by Annexin V-FITC/PI staining based flow cytometric analysis (reference value: 3.2%); assay type: functional; settings: dose 2 µmol/L, at 2 µM
[5] = biological target: T1, NEDD8-conjugating enzyme Ubc12 (Homo sapiens, UniProt P61081); test: Inhibition of Ubc12 (unknown origin)-neddylation incubated for 30 mins in presence of ATP by Western blot analysis
T1 sequence (P61081 whole entry): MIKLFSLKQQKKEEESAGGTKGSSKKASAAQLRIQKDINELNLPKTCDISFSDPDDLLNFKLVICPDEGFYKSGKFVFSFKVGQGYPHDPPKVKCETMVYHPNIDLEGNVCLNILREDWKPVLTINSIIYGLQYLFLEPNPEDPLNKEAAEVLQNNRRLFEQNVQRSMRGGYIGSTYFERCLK

[6] = biological target: T2, SUMO-activating enzyme (Homo sapiens, UniProt Q9UBT2); test: Inhibition of SAE1/UBA2 in human HCT-116 cells assessed as reduction in Ubc9-SUMO level incubated for 24 hrs by immunoblot analysis; assay type: cell-based
[7] = biological target: T3, Ubiquitin-like modifier-activating enzyme ATG7 (Homo sapiens, UniProt O95352); test: Inhibition of His-tagged ATG7 (unknown origin) expressed in sf9 insect cells
T3 sequence (O95352 whole entry): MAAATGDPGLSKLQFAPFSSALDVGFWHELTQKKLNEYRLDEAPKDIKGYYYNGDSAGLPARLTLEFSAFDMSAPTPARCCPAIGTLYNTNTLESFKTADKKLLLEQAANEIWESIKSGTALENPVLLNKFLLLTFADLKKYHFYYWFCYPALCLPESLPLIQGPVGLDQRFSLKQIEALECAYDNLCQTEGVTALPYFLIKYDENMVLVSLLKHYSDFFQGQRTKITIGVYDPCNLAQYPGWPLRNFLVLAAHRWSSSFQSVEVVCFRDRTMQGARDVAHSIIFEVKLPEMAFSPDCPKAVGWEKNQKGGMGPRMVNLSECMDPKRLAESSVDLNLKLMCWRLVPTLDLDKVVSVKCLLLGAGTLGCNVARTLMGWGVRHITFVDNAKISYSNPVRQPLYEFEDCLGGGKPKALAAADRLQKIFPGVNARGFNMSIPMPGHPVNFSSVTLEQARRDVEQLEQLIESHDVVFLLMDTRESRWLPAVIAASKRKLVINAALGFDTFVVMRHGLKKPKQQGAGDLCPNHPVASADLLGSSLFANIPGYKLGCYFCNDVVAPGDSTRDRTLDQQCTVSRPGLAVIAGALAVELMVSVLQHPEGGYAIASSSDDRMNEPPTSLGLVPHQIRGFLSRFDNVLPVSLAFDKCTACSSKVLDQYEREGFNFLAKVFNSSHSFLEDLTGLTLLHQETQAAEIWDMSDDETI

[8] = biological target: T4, Ubiquitin-like modifier-activating enzyme 6 (Homo sapiens, UniProt A0AVT1); test: Inhibition of His-tagged UBA6 (unknown origin) expressed in sf9 insect cells
T4 sequence (A0AVT1 whole entry): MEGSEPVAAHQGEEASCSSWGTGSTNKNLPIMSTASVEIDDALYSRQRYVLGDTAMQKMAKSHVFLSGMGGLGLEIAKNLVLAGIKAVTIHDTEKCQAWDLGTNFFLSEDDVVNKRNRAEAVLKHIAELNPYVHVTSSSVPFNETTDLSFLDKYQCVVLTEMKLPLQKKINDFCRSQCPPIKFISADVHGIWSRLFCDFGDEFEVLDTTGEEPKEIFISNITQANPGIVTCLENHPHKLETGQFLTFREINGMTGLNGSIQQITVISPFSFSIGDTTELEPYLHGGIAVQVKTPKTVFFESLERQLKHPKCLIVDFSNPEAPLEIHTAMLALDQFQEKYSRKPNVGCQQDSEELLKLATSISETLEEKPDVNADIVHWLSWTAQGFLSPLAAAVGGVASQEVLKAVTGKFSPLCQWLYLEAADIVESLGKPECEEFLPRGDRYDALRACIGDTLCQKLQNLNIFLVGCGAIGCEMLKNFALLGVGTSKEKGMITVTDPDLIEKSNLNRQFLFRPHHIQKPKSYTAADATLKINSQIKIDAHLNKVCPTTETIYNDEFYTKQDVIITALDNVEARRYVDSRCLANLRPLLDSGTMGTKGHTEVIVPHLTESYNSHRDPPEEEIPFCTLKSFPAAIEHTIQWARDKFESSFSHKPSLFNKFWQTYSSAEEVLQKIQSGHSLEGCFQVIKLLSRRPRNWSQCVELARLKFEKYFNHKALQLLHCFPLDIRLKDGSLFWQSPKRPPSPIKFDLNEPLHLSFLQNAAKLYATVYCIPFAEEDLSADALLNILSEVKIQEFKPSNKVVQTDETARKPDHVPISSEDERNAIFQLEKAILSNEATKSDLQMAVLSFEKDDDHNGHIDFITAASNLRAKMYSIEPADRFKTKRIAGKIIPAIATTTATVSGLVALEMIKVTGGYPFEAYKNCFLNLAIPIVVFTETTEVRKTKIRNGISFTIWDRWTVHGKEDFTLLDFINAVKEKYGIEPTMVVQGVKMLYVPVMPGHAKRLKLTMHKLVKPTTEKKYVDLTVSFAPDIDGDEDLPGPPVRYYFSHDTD

[9] = Toxicity in SCID mouse xenografted with human TMD8 cells expressing luciferase gene assessed as survival days at 100 mg/kg/day, iv administered at 1 to 21 days cycle for 8 cycles; assay type: organism-based; settings: in vivo, time 1-21 day
[10] = tested on: CCRF-CEM; test: Antiproliferative activity against human CCRF-CEM assessed as net growth rate at <1 uM […] by CellTiter-Glo assay relative to control; assay type: functional
[11] = biological target: T5, NEDD8 activating enzyme (Homo sapiens, UniProt Q8TBC4); test: Inhibition of recombinant human APPBP1/UBA3 expressed in Escherichia coli assessed as Ub/Ubl thioester transfer
T5 sequence (Q8TBC4 whole entry): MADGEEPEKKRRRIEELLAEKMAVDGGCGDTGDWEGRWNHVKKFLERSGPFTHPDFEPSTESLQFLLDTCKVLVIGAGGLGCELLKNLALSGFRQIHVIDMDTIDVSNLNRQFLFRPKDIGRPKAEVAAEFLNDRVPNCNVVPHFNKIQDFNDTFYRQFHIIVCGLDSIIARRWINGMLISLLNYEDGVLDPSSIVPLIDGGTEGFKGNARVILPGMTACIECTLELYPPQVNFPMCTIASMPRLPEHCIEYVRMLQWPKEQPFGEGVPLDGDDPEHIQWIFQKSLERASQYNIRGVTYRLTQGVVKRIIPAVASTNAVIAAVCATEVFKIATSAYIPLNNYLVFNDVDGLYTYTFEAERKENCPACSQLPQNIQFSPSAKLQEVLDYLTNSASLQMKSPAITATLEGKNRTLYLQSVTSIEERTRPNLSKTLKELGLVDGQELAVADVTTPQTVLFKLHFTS
T5 sequence (Q13564 whole entry): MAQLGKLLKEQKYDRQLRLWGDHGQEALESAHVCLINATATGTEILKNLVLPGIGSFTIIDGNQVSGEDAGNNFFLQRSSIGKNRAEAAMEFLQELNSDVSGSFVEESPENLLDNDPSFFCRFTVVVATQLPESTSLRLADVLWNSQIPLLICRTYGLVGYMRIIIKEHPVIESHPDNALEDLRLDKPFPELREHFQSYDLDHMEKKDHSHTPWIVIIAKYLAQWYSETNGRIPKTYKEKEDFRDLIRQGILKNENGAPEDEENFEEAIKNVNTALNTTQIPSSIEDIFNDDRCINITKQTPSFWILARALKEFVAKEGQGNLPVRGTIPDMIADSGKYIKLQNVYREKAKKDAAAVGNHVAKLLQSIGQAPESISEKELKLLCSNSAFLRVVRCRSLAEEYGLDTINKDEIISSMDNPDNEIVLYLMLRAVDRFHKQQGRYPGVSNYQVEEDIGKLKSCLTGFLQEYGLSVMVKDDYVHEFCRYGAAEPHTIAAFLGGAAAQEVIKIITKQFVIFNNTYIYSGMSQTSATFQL

[12] = biological target: T2, SUMO-activating enzyme; test: Inhibition of recombinant human SAE1/UBA2 expressed in Escherichia coli assessed as reduction in transfer of […] to UBE2I enzyme
[13] = biological target: T6, Ubiquitin-like modifier-activating enzyme 1 (Homo sapiens, UniProt P22314); test: Inhibition of recombinant C-terminal His-tagged human full length UAE1 expressed in Escherichia coli BL21 (lambdaDE3) assessed as reduction in transfer of Ub to UBE2C enzyme
T6 sequence (P22314 whole entry): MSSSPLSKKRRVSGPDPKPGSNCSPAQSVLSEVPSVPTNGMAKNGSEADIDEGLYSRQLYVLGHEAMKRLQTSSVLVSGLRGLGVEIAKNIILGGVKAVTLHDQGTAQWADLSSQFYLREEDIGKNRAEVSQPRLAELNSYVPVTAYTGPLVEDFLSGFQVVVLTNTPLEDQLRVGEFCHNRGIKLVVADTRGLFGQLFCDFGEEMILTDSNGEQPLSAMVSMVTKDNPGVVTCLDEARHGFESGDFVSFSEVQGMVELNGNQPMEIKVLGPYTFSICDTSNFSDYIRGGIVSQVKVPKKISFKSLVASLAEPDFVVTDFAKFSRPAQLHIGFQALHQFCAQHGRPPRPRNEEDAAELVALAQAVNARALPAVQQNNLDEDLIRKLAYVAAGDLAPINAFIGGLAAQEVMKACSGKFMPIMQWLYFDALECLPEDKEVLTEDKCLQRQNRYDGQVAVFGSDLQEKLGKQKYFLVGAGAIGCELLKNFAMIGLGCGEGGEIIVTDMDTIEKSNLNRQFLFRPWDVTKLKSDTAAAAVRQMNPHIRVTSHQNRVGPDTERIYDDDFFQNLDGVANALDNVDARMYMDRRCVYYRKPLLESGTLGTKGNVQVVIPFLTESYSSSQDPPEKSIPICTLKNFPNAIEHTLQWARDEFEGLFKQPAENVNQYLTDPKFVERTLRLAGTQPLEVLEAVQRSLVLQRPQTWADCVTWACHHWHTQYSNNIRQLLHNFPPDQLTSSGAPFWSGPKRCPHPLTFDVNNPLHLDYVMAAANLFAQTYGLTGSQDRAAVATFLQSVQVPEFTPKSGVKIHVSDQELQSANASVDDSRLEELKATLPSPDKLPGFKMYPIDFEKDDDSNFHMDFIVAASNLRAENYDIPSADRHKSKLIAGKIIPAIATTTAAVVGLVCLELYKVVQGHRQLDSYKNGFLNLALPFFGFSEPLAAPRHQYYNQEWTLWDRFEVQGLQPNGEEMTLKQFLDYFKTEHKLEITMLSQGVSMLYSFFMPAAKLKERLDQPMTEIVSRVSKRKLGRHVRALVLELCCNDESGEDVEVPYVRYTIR

[14] = biological target: T6, Ubiquitin-like modifier-activating enzyme 1; test: Inhibition of UAE (unknown origin)
[15] = biological target: T7, NEDD8-activating enzyme E1 regulatory subunit (Homo sapiens, UniProt Q13564); test: Inhibition of NAE (unknown origin)
T7 sequence (Q13564 whole entry): T5 sequence (Q13564 whole entry)

T2 sequence (Q9UBE0 whole entry): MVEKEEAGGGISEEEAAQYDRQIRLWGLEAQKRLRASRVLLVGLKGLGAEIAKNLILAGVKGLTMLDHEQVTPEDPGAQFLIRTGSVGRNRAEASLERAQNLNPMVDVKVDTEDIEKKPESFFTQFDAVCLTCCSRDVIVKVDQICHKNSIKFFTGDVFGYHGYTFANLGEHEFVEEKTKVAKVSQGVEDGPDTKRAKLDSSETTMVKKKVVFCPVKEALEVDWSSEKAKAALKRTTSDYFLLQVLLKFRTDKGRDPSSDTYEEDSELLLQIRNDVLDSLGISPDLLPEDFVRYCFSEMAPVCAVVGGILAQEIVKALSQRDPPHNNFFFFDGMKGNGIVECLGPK
T2 sequence (Q9UBT2 whole entry): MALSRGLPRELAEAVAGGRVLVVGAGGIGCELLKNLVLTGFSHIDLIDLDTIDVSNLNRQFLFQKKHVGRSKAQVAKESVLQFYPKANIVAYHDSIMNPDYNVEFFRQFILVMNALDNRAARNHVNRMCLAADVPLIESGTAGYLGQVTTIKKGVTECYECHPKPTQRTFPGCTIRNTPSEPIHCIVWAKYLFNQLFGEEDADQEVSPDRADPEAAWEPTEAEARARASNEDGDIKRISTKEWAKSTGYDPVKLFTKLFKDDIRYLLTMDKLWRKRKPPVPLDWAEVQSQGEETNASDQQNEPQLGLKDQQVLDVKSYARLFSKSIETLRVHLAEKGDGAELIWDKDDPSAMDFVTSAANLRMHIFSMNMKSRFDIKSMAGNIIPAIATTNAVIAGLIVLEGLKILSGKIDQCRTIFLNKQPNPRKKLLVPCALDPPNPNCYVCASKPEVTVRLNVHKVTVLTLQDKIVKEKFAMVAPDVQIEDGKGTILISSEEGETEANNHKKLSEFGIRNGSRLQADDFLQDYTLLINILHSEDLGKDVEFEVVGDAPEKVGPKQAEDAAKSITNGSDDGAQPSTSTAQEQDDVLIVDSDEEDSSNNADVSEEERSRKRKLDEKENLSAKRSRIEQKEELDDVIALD

COc1ccc(CN(C(=O)Cn2ccc3cc(OC)ccc32)c2cc(OC)c(OC)c(OC)c2)cc1
Activity [1]: 11.1% | IC50 [2]: 1.59 µM | Activity [3]: 4.4% | Activity [4]: 65.2%

CC(C)=CCc1c(O)c(CC=C(C)C)c2oc3c(O)ccc(O)c3c(=O)c2c1O [GARTANIN]
IC50 [5]: 10.3 µM

NS(=O)(=O)OC[C@@H]1C[C@@H](n2ccc3c(N[C@H]4CCc5ccccc54)ncnc32)C[C@@H]1O [PEVONEDISTAT]
IC50 [6]: 8.2 µM | IC50 [7]: > 10 µM | IC50 [8]: 1.8 µM

CCOc1cccc(F)c1C#Cc1cn([C@@H]2O[C@H](CNS(N)(=O)=O)[C@@H](O)[C@H]2O)c2ncnc(N)c12
Survival [9]: > 159 days | Activity [10]: 0% | IC50 [11]: 0.000955 µM | IC50 [12]: 1.28 µM | IC50 [13]: 0.449 µM

COC(=O)N1CCC2(CC1)C[C@H](Nc1ncnc3c1nnn3[C@@H]1C[C@@H](COS(N)(=O)=O)[C@@H](O)C1)c1ccccc12
IC50 [14]: 0.066 µM | IC50 [15]: 0.0005 µM
